Measured values taken from patent US20040254136A1, “Antisense oligonucleotides and related methods for regulating cell death” (priority 2001, published 2004).
Entries after “also recorded” stand apart in the source; their conditions may differ.

Experiments:
[1] = test system: wild-type sympathetic neurons; test: Survival of NGF-deprived (TFD) wild-type sympathetic neurons; assay type: cell-based, mouse; conditions: for protection from TFD-induced death (survival): anti-NGF, BAF 50 μM, DEVD-FMK 10 μM; for protection from NGF withdrawal (survival): anti-NGF plus antisense oligonucleotides, scored daily for three days
Procedure: (§1) Sympathetic neuron cultures were prepared from 1-day-old wild-type and caspase-2−/− mouse pups (Bergeron et al. 1998). Cultures were grown in 24-well collagen-coated dishes for survival experiments and in 6-well collagen-coated dishes for RNA and protein extraction in RPMI 1640 medium plus 10% horse serum with mouse NGF (100 ng/ml). One day following plating, uridine and 5-fluorodeoxyuridine (10 μM each) were added to the cultures and left for three days to eliminate non-neuronal cells (less than 1% non-neuronal cells remain after 3 days). For survival experiments, on the sixth day following plating, NGF was removed by washing the cultures three times with RPMI 1640 medium plus 10% horse serum, followed by the addition of medium containing anti-mouse NGF (1:200, Sigma). Caspase inhibitors (Enzyme Systems Products) were added as indicated. Each culture was scored, as previously described (Troy et al., 1997), for numbers of living, phase-bright neurons present in the same field at various times. Three replicate cultures were assessed for each condition and data are normalized to numbers of neurons present in each culture at the time of NGF deprivation and reported as mean±SEM. For RNA and protein extraction on the sixth day following plating, RNA and protein were extracted using the Trizol reagent according to the manufacturer's protocol.

[2] = test system: caspase-2-null sympathetic neurons; test: Survival of NGF-deprived (TFD) caspase-2-null sympathetic neurons; assay type: cell-based, mouse; conditions: caspase-2-null neurons; for protection from TFD-induced death (survival): anti-NGF, BAF 50 μM, DEVD-FMK 10 μM; for protection from NGF withdrawal (survival): anti-NGF plus antisense oligonucleotides, scored daily for three days
Procedure: as §1

MIAP3 = test: Western blotting of MIAP3 after V-AMIAP3 treatment of PC12 cells; assay type: cell-based; conditions: within 5 hours
Procedure: PC12 cells were treated with V-AMIAP3 (240 nM) for 6 hours. Cells lysates containing equal amounts of protein were subjected to Western blotting using the corresponding antisera. Actin staining confirmed equal loading. These are representative blots. Similar results were obtained in 2 independent experiments.
Postnatal day 1 mouse brains were harvested in sample buffer. For antisense down-regulation studies, PC12 cells, grown as previously described, were treated with various antisense constructs for 5 hours and harvested in sample buffer. Equal amounts of protein were separated by 15% PAGE, transferred to nitrocellulose and immunostained as described (Troy et al, 2000). Anti-caspase-9 (MBL) was used at 1:1000, anti-APAF-1 (StressGen) was used at 1:1000, anti-Smac was used at 1:2000, anti-XIAP (StressGen) was used at 1:1000, anti-RAIDD (StressGen) was used at 1:500 and anti-actin (Sigma) was used at 1:200. Visualization was with ECL, using goat-anti-rabbit peroxidase at 1:1000. The relative intensities of the protein bands were quantified using Scion Image 1.55 software (NIH).

Compound	protection from TFD-induced death (survival) [1]	protection from TFD-induced death (survival) [2]	protection from NGF withdrawal (survival) [1]	protection from NGF withdrawal (survival) [2]	down-regulation of MIAP3 (MIAP3) [%]
COC(=O)CC(NC(=O)OC(C)(C)C)C(=O)CF (stereo not drawn) [BAF]	protects; also recorded: rescued	protects; also recorded: rescued	–	–	–
COC(=O)CC[C@H](NC(=O)[C@H](CC(=O)OC)NC(=O)OCc1ccccc1)C(=O)N[C@H](C(=O)N[C@@H](CC(=O)OC)C(=O)CF)C(C)C [DEVD-FMK]	provided protection only for caspase-2-null neurons; also recorded: only the caspase-2-null neurons were rescued	provided protection; also recorded: rescued	–	–	–
CTGCCGGTCCGCCTCGTCCAT (chemistry not given here) [V-ACasp9, PENETRATIN1™-linked antisense oligonucleotide to caspase-9]	–	–	no protection	protected	–
GTTAAAAGTCATCTTCTCTGG (chemistry not given here) [V-AMIAP3, PENETRATIN1™-linked antisense oligonucleotide to MIAP3]	–	–	–	–	70
GTTGTTGTCCATGGTCACTTT (chemistry not given here) [V-ACasp3, PENETRATIN1™-linked antisense oligonucleotide to caspase-3]	–	–	no protection	protected	–
